Laboratory results taken from patent US9714401B2, “Particles for malodor reduction” (The Procter & Gamble Company, priority 2015, dated 2017).

Assay: Blocker Index (BI), expert graders smelling isovaleric acid + test material swatches against isovaleric acid reference scale
From the text: Material selection is done by assigning two indices to a test sample material from two reference scales in order to rank odor strengths. The two reference scales are the Fragrance Fidelity Index (FFI) scale and the Blocker Index (BI) scale. The FFI ranks the ability of the test sample material to impart a perceivable odor which could cause interference when combined with another fragrance and the BI ranks the ability of the test sample material to reduce malodor perception. The two methods for assigning the indices to a test sample on the FFI and the BI reference scales are given below.
The first step in the method for assigning a BI to a test sample material on the BI reference scale is to create the BI reference swatches. […] Fabric swatches for this test are white knit polycotton (4 inch×4 inch) swatches from EMC ordered as PC 50/50. The supplier is instructed to strip the swatches first, stripping involves washing twice with a fragrance-free detergent and rinsing three times.
The BI scale contains one clean swatch with no malodor applied. […] These solutions are pipetted to the middle of the swatches. […] After drying for 30 minutes in a vented hood, the swatches are wrapped in aluminum foil to prevent odor contamination to the treated swatch. A clean untreated swatch is also included as the lowest anchor point of reference for malodor strength on the BI scale. […]

## COC(=O)OC1CCC=CCCC1 (centres unmarked) [Material 1139]
Conc 10 ppm test material on swatch with 20 μL 0.08% isovaleric acid
  BI: 2.0
Conc 50 ppm test material on swatch with 20 μL 0.08% isovaleric acid
  BI: 2.7
